Like-named read-outs stand apart in the source and are kept apart here. Values belong to the compound of their own block, whether it stands above or below them. *1 amine or outer side, *2 acyl side, *3 side chain or, on linkers, in order; H or OH if unused. Where a SMILES comes first, the peptide text is derived from it. Bridges are numbered along the chain shown (N, C = ends). [ ]: non-standard residue; d: D form. TBMB = c1c(C[*:1])cc(C[*:3])cc1C[*:2]; hArg = N=C(N)NCCCC[C@H](N)C(=O)O; Aze = O=C(O)[C@@H]1CCN1; Sar = CNCC(=O)O
Legend:
[1] = target: T1, biotinylated human plasma kallikrein (Homo sapiens, UniProt P03952); assay: Homogeneous plate-based screening assay of TBMB-cyclised phage clones (signal:background); type: binding
T1 construct: The human kallikrein is non-recombinant and therefore the heavy chain is present; purchased Innovative Research, Novi, Mich., USA IHPKA; host or cells: from human plasma
Description: Assay of binding of individual clones: Library transformant colonies were picked at random and grown as individual cultures in 2TY broth containing selective antibiotic. The picked colonies were DNA-sequenced using a QIAgen PyroMark Q96 DNA sequencer to reveal the amino-acid substitution present in each clone. Where isolated, a clone of each unique substitution was assayed for human plasma kallikrein binding as follows. The phage-containing supernatant was harvested from the culture and phage were cyclised with tris bromomethyl benzene (TBMB) based on the methods of Heinis et al (Nature Chemical Biology vol. 5 pp 502-507 (2009)). The purified phage from this process were assayed for binding to biotinylated human plasma kallikrein using a homogeneous plate-based binding assay; assay read-out measured on a BMG Labtech Pherastar FS plate reader. The quantitative binding data from triplicate assay samples was averaged (mean) and expressed as signal:background (where background was a sample assayed with no target material). The signal:background was expressed as a % of the parallel parent sample. Error bars denote standard deviation of the mean. Assays shown are representative of at least 2 independent experiments. The assay data was correlated with the peptide sequences. Substitutions marked in grey were not tested (a clone was not isolated from the random library sampling). A sample of a non-binding (arbitrary) bicycle was assayed in parallel to illustrate the assay baseline.
Assay of binding of individual clones: Library transformant colonies, or selection output colonies, were picked and grown as individual cultures in 2TY broth containing selective antibiotic. The picked colonies were DNA-sequenced using a QIAgen PyroMark Q96 DNA sequencer to reveal the amino-acid substitution present in each clone, and were assayed for human plasma kallikrein binding as follows. The phage-containing supernatant was harvested from the culture and phage were cyclised with tris-bromomethylbenzene (TBMB) based on the methods of Heinis et al (Nature Chemical Biology vol. 5 pp 502-507 (2009)). The purified phage from this process were assayed for binding to biotinylated human plasma kallikrein using a homogeneous plate-based binding assay; assay read-out measured on a BMG Labtech Pherastar FS plate reader. The quantitative binding data from duplicate assay samples was averaged (mean) and expressed as signal:background. Assay data shown is representative of at least 2 independent experiments. The assay data was correlated with the peptide sequences.

[2] = target: T2, human plasma kallikrein (Homo sapiens, UniProt P03952); assay: Functional enzyme assay, inhibition of human plasma kallikrein (Z-PheArg-AMC substrate); type: biochemical
T2 construct: purchased Stratech, UK
Description: (§1) Functional enzyme assays were conducted in 10 mM Tris HCl, 150 mM NaCl, 10 mM MgCl2, 1 mM CaCl2 and 1 mg/mL BSA (all Sigma UK) pH 7.4 at 25° C. in solid black 96 or 384 well plates. […] Release of AMC was measured using a Pherastar FS (BMG Labtech), excitation 360 nm, emission 460 nm. The rate of the linear phase of the reaction, typically 5 to 45 minutes, was calculated in MARS data analysis software (BMG labtech). The rate was then used to calculate the IC50 and Ki in Prism (GraphPad). A four parameter inhibition non-linear regression equation was used to calculate the IC50. […]
(§2) Peptides were dissolved as the TFA-salts in their powder form, and stock solutions were usually prepared in water. All solutions were centrifuged and filtered ([…] syringe filters) prior to absorption measurement at 280 nm. Extinction coefficients were calculated based on the Trp/Tyr content of the peptide, and that of TMB (the TMB core, when contained in a peptide, has an extinction coefficient of ˜300 M^−1 cm^−1).

[3] = target: T3, rat plasma kallikrein (Rattus norvegicus, UniProt P14272); assay: Functional enzyme assay, inhibition of rat plasma kallikrein (Z-PheArg-AMC substrate); type: biochemical; settings: Table 1, synthetic peptides; read-out: Rat (Ki)
T3 construct: polyhistidine tag followed by proTEV cleavage site (pro-peptide) (N, cleaved yes); made in house; host or cells: HEK-293 (suspension-adapted), pEXPR-IBA42 vector
Description: as §1, §2

[4] = target: rabbit kallikrein (Oryctolagus cuniculus, UniProt G1T127); assay: Functional enzyme assay, inhibition of rabbit kallikrein; type: biochemical
Description: as §1, §2

[5] = Table 3, 06-254 affinity-matured library
[6] = Table 1, synthetic peptides, read-out: Human (Ki)

rabbit kallikrein, sequence (G1T127 20-629): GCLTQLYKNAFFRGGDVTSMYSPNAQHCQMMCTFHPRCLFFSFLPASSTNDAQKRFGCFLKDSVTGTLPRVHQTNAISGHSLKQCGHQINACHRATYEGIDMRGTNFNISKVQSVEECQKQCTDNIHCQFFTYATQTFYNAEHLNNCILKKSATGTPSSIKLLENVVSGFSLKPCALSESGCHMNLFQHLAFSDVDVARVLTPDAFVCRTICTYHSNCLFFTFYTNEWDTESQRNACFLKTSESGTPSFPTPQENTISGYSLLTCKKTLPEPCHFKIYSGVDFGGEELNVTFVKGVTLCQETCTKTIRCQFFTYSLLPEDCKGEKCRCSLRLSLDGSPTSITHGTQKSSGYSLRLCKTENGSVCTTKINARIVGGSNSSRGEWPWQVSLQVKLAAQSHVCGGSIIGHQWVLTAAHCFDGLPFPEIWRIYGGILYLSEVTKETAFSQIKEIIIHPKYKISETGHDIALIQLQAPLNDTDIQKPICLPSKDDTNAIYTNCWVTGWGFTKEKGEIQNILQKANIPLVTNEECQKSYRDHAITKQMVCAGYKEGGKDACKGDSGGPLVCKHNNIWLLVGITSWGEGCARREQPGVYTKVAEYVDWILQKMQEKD
T1 sequence (P03952 391-638 limits assumed): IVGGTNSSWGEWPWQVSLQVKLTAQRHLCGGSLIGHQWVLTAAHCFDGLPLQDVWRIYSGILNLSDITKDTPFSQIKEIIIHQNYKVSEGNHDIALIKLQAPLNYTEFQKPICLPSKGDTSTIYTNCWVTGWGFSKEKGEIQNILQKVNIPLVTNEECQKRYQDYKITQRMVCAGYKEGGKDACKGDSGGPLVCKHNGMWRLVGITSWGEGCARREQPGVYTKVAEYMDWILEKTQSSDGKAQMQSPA
T1 sequence (P03952 20-390 partner limits assumed): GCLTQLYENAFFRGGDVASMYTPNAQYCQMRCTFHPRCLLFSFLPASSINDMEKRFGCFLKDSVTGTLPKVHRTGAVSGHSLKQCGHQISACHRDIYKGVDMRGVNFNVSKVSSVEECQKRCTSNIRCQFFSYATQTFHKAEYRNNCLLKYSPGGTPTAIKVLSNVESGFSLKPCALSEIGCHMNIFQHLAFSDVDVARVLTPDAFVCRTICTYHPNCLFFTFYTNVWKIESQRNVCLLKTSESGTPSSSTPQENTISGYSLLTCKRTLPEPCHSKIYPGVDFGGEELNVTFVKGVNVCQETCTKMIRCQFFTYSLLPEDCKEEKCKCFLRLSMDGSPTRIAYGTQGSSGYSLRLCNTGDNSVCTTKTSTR
T2 sequence (P03952 391-638 limits assumed): as the sequence (P03952 391-638 limits assumed) above
T2 sequence (P03952 20-390 partner limits assumed): as the sequence (P03952 20-390 partner limits assumed) above
T3 sequence (P14272 391-638 limits assumed): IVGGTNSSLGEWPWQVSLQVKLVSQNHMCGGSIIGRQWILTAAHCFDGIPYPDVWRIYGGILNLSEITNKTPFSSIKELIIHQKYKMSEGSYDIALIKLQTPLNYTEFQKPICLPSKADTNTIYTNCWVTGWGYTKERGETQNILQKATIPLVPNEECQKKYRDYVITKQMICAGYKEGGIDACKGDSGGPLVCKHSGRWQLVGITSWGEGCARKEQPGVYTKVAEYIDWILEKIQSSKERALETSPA

SMILES: CC[C@H](C)[C@@H]1NC(=O)[C@H](CC(C)C)NC(=O)[C@H](CC(=O)O)NC(=O)[C@@H]2CSCc3cc(cc(c3)CSC[C@@H](C(=O)N[C@@H](C)C(N)=O)NC(=O)[C@H]([C@@H](C)O)NC(=O)[C@H]([C@@H](C)O)NC(=O)[C@H](CCC(=O)O)NC1=O)CSC[C@H](NC(=O)[C@H](C)N)C(=O)N[C@@H](CCCCN)C(=O)N[C@@H](CC(N)=O)C(=O)N[C@@H](Cc1ccc(O)cc1)C(=O)N[C@@H](Cc1c[nH]c3ccccc13)C(=O)N[C@@H](CC(N)=O)C(=O)N1CCC[C@H]1C(=O)N2 [06-254-01] (H-ACKNYWNPCDLIETTCA-NH2; linker 2-9-16 via TBMB; N-terminus and C-terminus assumed)
S:B (Signal:Background) [1, 5]: 61.90

SMILES: CC[C@H](C)[C@@H]1NC(=O)[C@H](CC(C)C)NC(=O)[C@H]([C@@H](C)O)NC(=O)[C@@H]2CSCc3cc(cc(c3)CSC[C@@H](C(=O)N[C@@H](C)C(=O)N(C)CC(=O)N(C)CC(=O)N(C)CC(=O)N[C@H](CCCNC(=N)N)C(=O)N[C@H](CCCNC(=N)N)C(N)=O)NC(=O)[C@H]([C@@H](C)O)NC(=O)[C@H]([C@@H](C)CC)NC(=O)[C@H](CC(N)=O)NC1=O)CSC[C@H](NC(C)=O)C(=O)N[C@@H](CCCNC(=N)N)C(=O)N[C@@H](CC(N)=O)C(=O)N[C@@H](Cc1ccc(O)cc1)C(=O)N[C@@H](Cc1c[nH]c3ccccc13)C(=O)N[C@@H](CC(N)=O)C(=O)N1CCC[C@H]1C(=O)N2 [Ac-(06-255)-Sar3-(DArg2)] (Ac-CRNYWNPCTLINITCA[Sar][Sar][Sar][dR][dR]-NH2; linker 1-8-15 via TBMB)
Ki [2]: 1.2 nM

SMILES: CC[C@H](C)[C@@H]1NC(=O)[C@H](CC(C)C)NC(=O)[C@H]([C@@H](C)O)NC(=O)[C@@H]2CSCc3cc(cc(c3)CSC[C@H](NC(C)=O)C(=O)N[C@@H](CCCNC(=N)N)C(=O)N[C@@H](CC(N)=O)C(=O)N[C@@H](Cc3ccc(O)cc3)C(=O)N[C@@H](Cc3c[nH]c4ccccc34)C(=O)N[C@@H](CC(N)=O)C(=O)N3CCC[C@H]3C(=O)N2)CSC[C@@H](C(N)=O)NC(=O)[C@H]([C@@H](C)O)NC(=O)[C@H]([C@@H](C)CC)NC(=O)[C@H](CC(N)=O)NC1=O [Ac-(06-255)] (Ac-CRNYWNPCTLINITC-NH2; linker 1-8-15 via TBMB; C-terminus assumed)
Ki [4]: 342 nM

SMILES: CC[C@H](C)[C@@H]1NC(=O)[C@H](CC(=O)O)NC(=O)[C@@H]2CCCN2C(=O)[C@H](Cc2ccc(O)cc2)NC(=O)[C@H](Cc2ccc(O)cc2)NC(=O)[C@H](C(C)C)NC(=O)[C@@H]2CSCc3cc(cc(c3)CSC[C@H](NC(C)=O)C(=O)N[C@@H](CO)C(=O)N[C@@H](Cc3ccccc3)C(=O)N3CC[C@H]3C(=O)N[C@@H](Cc3ccc(O)cc3)C(=O)N[C@@H](CCCCNC(=N)N)C(=O)N2)CSC[C@@H](C(N)=O)NC1=O [Ac-(06-550) Aze3 HArg5] (Ac-CSF[Aze]Y[hArg]CVYYPDIC-NH2; linker 1-7-14 via TBMB)
Ki [2]: 0.5 nM

Next, values leading:

Ki ([2]; Table 5, read-out: Human (Ki)): 0.5 nM | S:B (Signal:Background) [1, 5]: 46.65
SMILES: CC[C@H](C)[C@@H]1NC(=O)[C@H](CC(C)C)NC(=O)[C@H](CC(=O)O)NC(=O)[C@@H]2CSCc3cc(cc(c3)CSC[C@@H](C(=O)N[C@@H](C)C(N)=O)NC(=O)[C@@H]3CCCN3C(=O)CNC(=O)[C@@H]3CCCN3C1=O)CSC[C@H](NC(=O)[C@H](C)N)C(=O)N[C@@H](CCCCN)C(=O)N[C@@H](CC(N)=O)C(=O)N[C@@H](Cc1ccc(O)cc1)C(=O)N[C@@H](Cc1c[nH]c3ccccc13)C(=O)N[C@@H](CC(N)=O)C(=O)N1CCC[C@H]1C(=O)N2 [06-254-02] (H-ACKNYWNPCDLIPGPCA-NH2; linker 2-9-16 via TBMB; N-terminus assumed)

Ki ([2]; Table 5, read-out: Human (Ki)): 1.4 nM | S:B (Signal:Background) [1, 5]: 56.70
SMILES: CSCC[C@@H]1NC(=O)[C@H](C(C)C)NC(=O)[C@H](CC(C)C)NC(=O)[C@H](CC(=O)O)NC(=O)[C@@H]2CSCc3cc(cc(c3)CSC[C@@H](C(=O)N[C@@H](C)C(N)=O)NC(=O)[C@H]([C@@H](C)O)NC(=O)[C@H](CC(=O)O)NC1=O)CSC[C@H](NC(=O)[C@H](C)N)C(=O)N[C@@H](CCCCN)C(=O)N[C@@H](CC(N)=O)C(=O)N[C@@H](Cc1ccc(O)cc1)C(=O)N[C@@H](Cc1c[nH]c3ccccc13)C(=O)N[C@@H](CC(N)=O)C(=O)N1CCC[C@H]1C(=O)N2 [06-254-03] (H-ACKNYWNPCDLVMDTCA-NH2; linker 2-9-16 via TBMB; N-terminus and C-terminus assumed)

Ki [2, 6]: 6.6 nM | Ki [3]: 2780 nM | Ki ([4]; Table 1, synthetic peptides, read-out: Rabbit (Ki)): 1460 nM | Ki ([4]; Table 5, read-out: Rabbit (Ki)): 1460 nM
SMILES: CC(C)[C@@H]1NC(=O)[C@H](CCCNC(=N)N)NC(=O)[C@@H]2CSCc3cc(cc(c3)CSC[C@@H](C(=O)N[C@@H](C)C(N)=O)NC(=O)[C@H](Cc3ccc(O)cc3)NC(=O)[C@H](CCCNC(=N)N)NC(=O)[C@H]([C@@H](C)O)NC(=O)[C@H](CC(=O)O)NC1=O)CSC[C@H](NC(=O)[C@H](C)N)C(=O)N[C@@H](CCC(N)=O)C(=O)N[C@@H](CCCCN)C(=O)N[C@@H](Cc1ccccc1)C(=O)N[C@@H](CCC(=O)O)C(=O)N[C@@H](CO)C(=O)N[C@@H](CCCNC(=N)N)C(=O)N2 [06-256] (H-ACQKFESRCRVDTRYCA-NH2; linker 2-9-16 via TBMB; N-terminus assumed)

Ki [2, 6]: 36.1 nM | Ki [3]: 159 nM
SMILES: CSCC[C@@H]1NC(=O)[C@H](CCCNC(=N)N)NC(=O)[C@H](CCCNC(=N)N)NC(=O)[C@H](Cc2ccc(O)cc2)NC(=O)[C@@H]2CSCc3cc(cc(c3)CSC[C@H](NC(=O)[C@H](C)N)C(=O)N3CCC[C@H]3C(=O)N[C@@H](CC(C)C)C(=O)N[C@@H](CO)C(=O)N[C@@H](CC(=O)O)C(=O)N[C@@H]([C@@H](C)O)C(=O)N[C@@H](CC(C)C)C(=O)N2)CSC[C@@H](C(=O)N[C@@H](C)C(N)=O)NC(=O)[C@@H]2CCCN2C(=O)[C@@H]2CCCN2C1=O [06-257] (H-ACPLSDTLCYRRMPPCA-NH2; linker 2-9-16 via TBMB; N-terminus assumed)

S:B (Signal:Background) ([1]; Table 4, 06-259 affinity-matured library): 51.67
SMILES: CC(C)[C@@H]1NC(=O)[C@H](CO)NC(=O)[C@@H]2CSCc3cc(cc(c3)CSC[C@@H](C(=O)N[C@@H](C)C(N)=O)NC(=O)[C@H](C(C)C)NC(=O)[C@@H]3CCCN3C(=O)[C@@H]3CCCN3C(=O)[C@H](CCC(=O)O)NC1=O)CSC[C@H](NC(=O)[C@H](C)N)C(=O)N[C@@H](CC(N)=O)C(=O)N[C@@H](Cc1c[nH]cn1)C(=O)N[C@@H](Cc1c[nH]c3ccccc13)C(=O)N[C@@H](CC(N)=O)C(=O)N1CCC[C@H]1C(=O)N[C@@H](Cc1c[nH]c3ccccc13)C(=O)N2 [06-259-01] (H-ACNHWNPWCSVEPPVCA-NH2; linker 2-9-16 via TBMB; N-terminus assumed)

Ki ([2]; Table 5, read-out: Human (Ki)): 3.4 nM
SMILES: CC(C)C[C@@H]1NC(=O)[C@@H]2CCCN2C(=O)[C@H](C)NC(=O)[C@H](CC(=O)O)NC(=O)[C@H](Cc2c[nH]c3ccccc23)NC(=O)[C@@H]2CCCN2C(=O)[C@@H]2CSCc3cc(cc(c3)CSC[C@@H](C(=O)N[C@@H](C)C(N)=O)NC1=O)CSC[C@H](NC(=O)[C@H](C)N)C(=O)N[C@@H](CC(N)=O)C(=O)N[C@@H](Cc1ccc(O)cc1)C(=O)N[C@@H](Cc1c[nH]c3ccccc13)C(=O)N[C@@H](CC(N)=O)C(=O)N1CCC[C@H]1C(=O)N[C@@H](Cc1c[nH]c3ccccc13)C(=O)N2 [06-259-04] (H-ACNYWNPWCPWDAPLCA-NH2; linker 2-9-16 via TBMB; N-terminus assumed)

Reference: patent US10894808B2, “Polypeptide ligands specific for plasma kallikrein” (BicycleRD Limited, priority 2013, dated 2021)
